We go through 7 compounds from PubChem BioAssay AID1259407 (Chemical Carcinogenesis Research Information System (CCRIS), 2018).

In the data set the test system is CCRIS mutagenicity, Ames/micronucleus/aberration tests. Nature of the data set: CCRIS mutagenicity studies. An excerpt:
The CCRIS database contains chemical records with carcinogenicity, mutagenicity, tumor promotion, and tumor inhibition test results. It was developed by the National Cancer Institute (NCI). Data are derived from studies cited in primary journals, current awareness tools, NCI reports, and other sources. Test results have been reviewed by experts in carcinogenesis and mutagenesis.
CCRIS provides historical information from the years 1985 - 2011. It is no longer updated.
This is an archive assay for CCRIS mutagenicity studies.

[1] abbreviates: Test System: AMES SALMONELLA TYPHIMURIUM, Strain/Indicator: TA98, Metabolic Activation: NONE, Method: STANDARD PLATE.
[2] abbreviates: Test System: AMES SALMONELLA TYPHIMURIUM, Strain/Indicator: TA100, Metabolic Activation: NONE, Method: STANDARD PLATE.

Activity calls are given as the source filed them. No rule for the calls is given here.

With `Cc1cc(Cl)ccc1OCC(=O)O`, the mutagenic call (Test System: AMES SALMONELLA TYPHIMURIUM, Strain/Indicator: TA97, Metabolic Activation: NONE, Method: STANDARD PLATE) is “inactive; negative”; the mutagenic call (Test System: AMES SALMONELLA TYPHIMURIUM, Strain/Indicator: TA97, Metabolic Activation: RAT, LIVER, S-9, AROCLOR 1254, Method: STANDARD PLATE) was “inactive; negative”; the mutagenic call (Test System: AMES SALMONELLA TYPHIMURIUM, Strain/Indicator: TA97A, Metabolic Activation: NONE, Method: STANDARD PLATE) was “inactive; negative”; the mutagenic call (Test System: AMES SALMONELLA TYPHIMURIUM, Strain/Indicator: TA97A, Metabolic Activation: RAT, LIVER, S-9, AROCLOR 1254, Method: STANDARD PLATE) is “inactive; negative”; the mutagenic call under setting [1] was “inactive; negative”; the mutagenic call (Test System: AMES SALMONELLA TYPHIMURIUM, Strain/Indicator: TA98, Metabolic Activation: RAT, LIVER, S-9, AROCLOR 1254, Method: STANDARD PLATE) is “inactive; negative”. The mutagenic call under setting [2] is “inactive; negative”; the mutagenic call (Test System: AMES SALMONELLA TYPHIMURIUM, Strain/Indicator: TA100, Metabolic Activation: RAT, LIVER, S-9, AROCLOR 1254, Method: STANDARD PLATE) is “inactive; negative”; the mutagenic call (Test System: AMES SALMONELLA TYPHIMURIUM, Strain/Indicator: TA102, Metabolic Activation: NONE, Method: STANDARD PLATE) is “inactive; negative”; the mutagenic call (Test System: AMES SALMONELLA TYPHIMURIUM, Strain/Indicator: TA102, Metabolic Activation: RAT, LIVER, S-9, AROCLOR 1254, Method: STANDARD PLATE) was “inactive; negative”; the mutagenic call (Test System: AMES SALMONELLA TYPHIMURIUM, Strain/Indicator: TA1535, Metabolic Activation: NONE, Method: STANDARD PLATE) was “inactive; negative”; the mutagenic call (Test System: AMES SALMONELLA TYPHIMURIUM, Strain/Indicator: TA1535, Metabolic Activation: RAT, LIVER, S-9, AROCLOR 1254, Method: STANDARD PLATE) is “inactive; negative”. Also, the mutagenic call is, setting by setting: (Test System: AMES SALMONELLA TYPHIMURIUM, Strain/Indicator: TA1537, Metabolic Activation: NONE, Method: STANDARD PLATE) “inactive; negative”; (Test System: AMES SALMONELLA TYPHIMURIUM, Strain/Indicator: TA1537, Metabolic Activation: RAT, LIVER, S-9, AROCLOR 1254, Method: STANDARD PLATE) “inactive; negative”; (Test System: AMES SALMONELLA TYPHIMURIUM, Strain/Indicator: TA1538, Metabolic Activation: NONE, Method: STANDARD PLATE) “inactive; negative”; (Test System: AMES SALMONELLA TYPHIMURIUM, Strain/Indicator: TA1538, Metabolic Activation: RAT, LIVER, S-9, AROCLOR 1254, Method: STANDARD PLATE) “inactive; negative”.

For the compound `Cc1ccc2nc(N)[nH]c2c1`, the mutagenic call (Test System: AMES SALMONELLA TYPHIMURIUM, Strain/Indicator: TA98, Metabolic Activation: RAT, LIVER, S-9, AROCLOR 1254, Method: PREINCUBATION) is “active; positive” and the mutagenic call (Test System: AMES SALMONELLA TYPHIMURIUM, Strain/Indicator: TA100, Metabolic Activation: RAT, LIVER, S-9, AROCLOR 1254, Method: PREINCUBATION) was “inactive; negative”.

Regarding `ONc1ccc(Oc2ccccc2)cc1`, the mutagenic call runs as follows: under setting [1], “active; positive”; under setting [2], “active; positive”.

For the compound `CSCNc1ccccc1`, the mutagenic call is, setting by setting: (Test System: AMES SALMONELLA TYPHIMURIUM, Strain/Indicator: TA100, Metabolic Activation: NONE, Method: SPOT TEST) “active; positive”; (Test System: AMES SALMONELLA TYPHIMURIUM, Strain/Indicator: TA100, Metabolic Activation: RAT, LIVER, S-9, AROCLOR 1254, Method: SPOT TEST) “active; positive”; (Test System: AMES SALMONELLA TYPHIMURIUM, Strain/Indicator: TA102, Metabolic Activation: NONE, Method: SPOT TEST) “active; positive”; (Test System: AMES SALMONELLA TYPHIMURIUM, Strain/Indicator: TA102, Metabolic Activation: RAT, LIVER, S-9, AROCLOR 1254, Method: SPOT TEST) “active; positive”.

For `CCC(C)CO` (centres undefined), the mutagenic call reads like this: (Test System: CHINESE HAMSTER V-79, Strain/Indicator: V-79 (HPRT)/6-THIOGUANINE, Metabolic Activation: NONE, Method: STANDARD PLATE) “inactive; negative”; (Test System: CHINESE HAMSTER V-79, Strain/Indicator: V-79 (HPRT)/6-THIOGUANINE, Metabolic Activation: RAT LIVER S-9, Method: STANDARD PLATE) “inactive; negative”.

For the compound `O=C1NC(=O)C(C(Cl)Cl)=C1Cl`, the mutagenic call under setting [2] was “active; positive”.

For `COc1ccc(CCC(=O)c2c(O)cc(O[C@@H]3O[C@H](CO)[C@@H](O)[C@H](O)[C@H]3O[C@@H]3O[C@@H](C)[C@H](O)[C@@H](O)[C@H]3O)cc2O)cc1O`, the mutagenic call runs as follows: (Test System: AMES SALMONELLA TYPHIMURIUM, Strain/Indicator: TA97, Metabolic Activation: HAMSTER, LIVER, S-9, AROCLOR 1254 (10 OR 30%), Method: PREINCUBATION) “inactive; negative”; (Test System: AMES SALMONELLA TYPHIMURIUM, Strain/Indicator: TA97, Metabolic Activation: NONE, Method: PREINCUBATION) “inactive; negative”; (Test System: AMES SALMONELLA TYPHIMURIUM, Strain/Indicator: TA97, Metabolic Activation: RAT, LIVER, S-9, AROCLOR 1254 (10 OR 30%), Method: PREINCUBATION) “inactive; negative”; (Test System: AMES SALMONELLA TYPHIMURIUM, Strain/Indicator: TA98, Metabolic Activation: HAMSTER, LIVER, S-9, AROCLOR 1254 (10 OR 30%), Method: PREINCUBATION) “inactive; negative”; (Test System: AMES SALMONELLA TYPHIMURIUM, Strain/Indicator: TA98, Metabolic Activation: NONE, Method: PREINCUBATION) “inactive; negative”; (Test System: AMES SALMONELLA TYPHIMURIUM, Strain/Indicator: TA98, Metabolic Activation: RAT, LIVER, S-9, AROCLOR 1254 (10 OR 30%), Method: PREINCUBATION) “inactive; negative”. In addition, the mutagenic call was “inactive; negative” (Test System: AMES SALMONELLA TYPHIMURIUM, Strain/Indicator: TA100, Metabolic Activation: HAMSTER, LIVER, S-9, AROCLOR 1254 (10 OR 30%), Method: PREINCUBATION); “inactive; negative” (Test System: AMES SALMONELLA TYPHIMURIUM, Strain/Indicator: TA100, Metabolic Activation: NONE, Method: PREINCUBATION); “inactive; negative” (Test System: AMES SALMONELLA TYPHIMURIUM, Strain/Indicator: TA100, Metabolic Activation: RAT, LIVER, S-9, AROCLOR 1254 (10 OR 30%), Method: PREINCUBATION); “inactive; negative” (Test System: AMES SALMONELLA TYPHIMURIUM, Strain/Indicator: TA1535, Metabolic Activation: HAMSTER, LIVER, S-9, AROCLOR 1254 (10 OR 30%), Method: PREINCUBATION); “inactive; negative” (Test System: AMES SALMONELLA TYPHIMURIUM, Strain/Indicator: TA1535, Metabolic Activation: NONE, Method: PREINCUBATION); “inactive; negative” (Test System: AMES SALMONELLA TYPHIMURIUM, Strain/Indicator: TA1535, Metabolic Activation: RAT, LIVER, S-9, AROCLOR 1254 (10 OR 30%), Method: PREINCUBATION).
